Values after ≈ are worked out from the molar mass of the structure shown. Like-named read-outs stand apart in the source and are kept apart here.
What was measured:
Saccharomyces cerevisiae = experiment: Broth microdilution assay (MIC) against Saccharomyces cerevisiae; assay type: cell-based; details: for MIC: broth microdilution, read-out: MIC S. cerevisiae
Method: (§1) With efficient access to this novel AmB chemotype, ureas AmBAU, AmBMU, and AmBCU were compared to AmB and a range of previously reported AmB derivatives in an in vitro antifungal and human cell toxicity screen. Yeast toxicity was measured with broth microdilution assays (MIC) against Saccharomyces cerevisiae. Human cell toxicity was studied by determining the amount of compound required to cause 90% hemolysis of human erythrocytes (EH90). […] Methyl esterification (AmBME) retains antifungal activity at 0.25 μM against S. cerevisiae, while decreasing hemolysis concentration to one third that seen with AmB. […] Hemolysis activity remained similar to AmBME and C41MeAmB. Bis-amino alkylated amide derivative AmBNR2 was previously shown to moderately improve the therapeutic index.
(§2) Each derivative proposed herein is tested for biological activity against both yeast and human cells to determine its therapeutic index. A broth microdilution experiment determines the MIC (minimum inhibitory concentration) of each derivative against S. cerevisiae and the clinically relevant C. albicans, thereby establishing the antifungal activity of each novel derivative. To test for toxicity against human cells, each compound is exposed to a hemolysis assay against red blood cells which determines the concentration required to cause 90% lysis of human red blood cells (EH90). Additionally, each compound is exposed to human primary renal tubule cells to determine the toxicity of each compound against kidney cells. These assays when compared against the known values of AmB against the same cell lines determine the improvement in therapeutic index of each compound.

[1] = system: human erythrocytes (red blood cells); experiment: Hemolysis assay of human erythrocytes (EH90); assay type: cell-based
Method: as §1, §2

yeast = details: in vitro studies, previously reported; cited from earlier work
[2] = Wilcock et al., J Am Chem Soc 135:8488 (2013); cited from earlier work
[3] = Wilcock et al., J Am Chem Soc 135:8488 (2013); cited from earlier work; remark: listed apart in the source
human cells = details: in vitro studies, previously reported; cited from earlier work
Candida albicans = experiment: Broth microdilution MIC against C. albicans; assay type: cell-based
Method: Urea derivatives AmBAU, AmBMU, and AmBCU maintain potent antifungal activity ranging from 0.125 μM to 3 μM against S. cerevisiae. […] AmBCU required 324 μM to cause 90% hemolysis in red blood cells, more than 30× required by AmB. Encouraged by this initial therapeutic index screen the urea series was further tested against the clinically relevant fungal cell line Candida albicans. C. albicans is the most common human fungal infection. AmB inhibits yeast grown of C. albicans at 0.25 μM. Similar to the trend seen with S. cerevisiae, the potency of the urea derivatives increased with increasing amount of cationic character. AmBAU, AmBMU, and AmBCU require 0.25, 0.5, and 1 μM respectively (Table 2).
as §2, with “Additionally, each compound is exposed to human primary renal tubule cells to determine the toxicity of each compound against kidney cells. These assays when compared against the known values of AmB against the same cell lines determine the improvement in therapeutic index of each compound.” left out

[4] = Acute toxicity, single intravenous administration to healthy mice, lethality; assay type: in vivo; details: single intravenous 4 mg/kg
Method: FIG. 6 is a graph depicting lethality in healthy mice of single intravenous administration in the doses indicated of AmB, AmBMU, or AmBAU.
In a separate set of experiments, acute toxicity was evaluated by single intravenous administration of 1, 2, 4, 8, 16, 32, or 64 mg/kg AmB or its derivatives to healthy mice, followed by monitoring for lethality. […] AmBAU was drastically less toxic with >50% lethality not being reached until the 64 mg/kg dosage group.

Compound: CC(C)/C=C/[C@H](O)CC1O[C@](O)(C[C@@H](O)C(C)C)C[C@H](O)[C@H]1C(=O)O (stereo partly shown) [AmdeB]
- MIC (Saccharomyces cerevisiae; Saccharomyces cerevisiae): > 500 µM
- cell-killing activity in yeast assay (Saccharomyces cerevisiae; in words): completely abolishes cell-killing activity
- cell-killing activity in human cell assay [1]: completely abolishes cell-killing activity
- EH90 red blood cells ([1]; human): >500 µM

Compound: CC1C=CC=CC=CC=CC=CC=CC=CC(OC2CC(N)C(O)C(C)O2)CC2OC(O)(CC(O)CC(O)C(O)CCC(O)CC(O)CC(=O)OC(C)C(C)C1O)CC(O)C2C(=O)O (stereo not shown) [C2′deOAmB]
- toxicity to yeast (yeast): toxic to yeast
- binding to cholesterol [2]: shows no binding to cholesterol
- ergosterol-binding ability [3]: retains ergosterol-binding ability
- toxicity to human cells (human cells): not human cells

Compound: COC(=O)[C@H]1C(C[C@H](/C=C/C(C)C)OC2OC(C)C(O)C(N)C2O)O[C@](O)(C[C@@H](O)C(C)C)C[C@@H]1O (stereo partly shown) [AmBME]
- MIC (Saccharomyces cerevisiae; Saccharomyces cerevisiae): 0.25 µM (≈ 0.13 µg/mL)
- hemolysis concentration relative to that seen with AmB [1]: one third
- EH90 red blood cells ([1]; human): 30.67 ± 5.38 µM

Compound: amphotericin B [AmB]
- MIC (Saccharomyces cerevisiae): 0.5 µM
- EH90 red blood cells ([1]; amount of compound required to cause 90% hemolysis of human erythrocytes): 10.37 ± 1.17 µM
- EH90 red blood cells ([1]; amount of compound required to cause 90% hemolysis of human erythrocytes, listed as Amphotericin B): 10.4 µM
- MIC C. albicans (Candida albicans): 0.25 µM
- lethality [4]: died within seconds

Compound: CC(C)/C=C/[C@@H](CC1O[C@](O)(C[C@@H](O)C(C)C)C[C@H](O)[C@H]1C(=O)NCCn1cncn1)OC1OC(C)C(O)C(N(CCCN)CCCN)C1O (stereo partly shown) [AmBNR2]
- MIC (Saccharomyces cerevisiae; Saccharomyces cerevisiae): 0.25 µM (≈ 0.178 µg/mL)

Compound: CC(C)/C=C/[C@@H](CC1O[C@](O)(C[C@@H](O)C(C)C)C[C@H](O)[C@H]1C(=O)NCCN)OC1OC(C)C(O)C(N)C1O (stereo partly shown) [AmBAA]
- MIC (Saccharomyces cerevisiae; Saccharomyces cerevisiae): 0.03 µM (≈ 0.0164 µg/mL)
- EH90 red blood cells ([1]; human): 33.96 ± 8.85 µM

Source: patent publication US20180273571A1, “CONCISE SYNTHESIS OF UREA DERIVATIVES OF AMPHOTERICIN B” (THE BOARD OF TRUSTEES OF THE UNIVERSITY OF ILLINOIS, priority 2015, published 2018)
